From patent US7153839B2, “Method of protecting erythricytes, in particular for improvement of blood cytopenia” (Biocell Laboratories, priority 2000, dated 2006)

Legend:
human thrombocytes = test: Aggregation of thrombocytes induced by arachidonic acid in vitro; type: cell-based; conditions: Table 2; 0.06 mg per tube
Experimental: We studied the anti-inflammatory action of nucleic acids on the model of thrombocyte aggregation in vitro by the method of Born (Born L.V.R. The aggregation of blood platelets by diphosphate and its reversal, Nature, […], P. 327, 1962). Venous human blood was taken in silicon tubes of Becton Dickson, which contained a 3.8% solution of sodium citrate. In order to receive thrombocytic-rich plasma, citrate blood was centrifuged at 1500 rev/mm for 7 minutes. Plasma free of thrombocytes was obtained by centrifuging 2.0 ml of plasma taken from medium layers for 15 minutes at 3000 rev/mm. We counted the number of thrombocytes in the thrombocytic-containing plasma, which was later diluted by the thrombocyte-free plasma to the final concentration […].
An Aggregometer produced by “Tromlite” (Poland) was used for thrombocyte aggregation. In order to induce aggregation, arachidonic acid was diluted in Michaelis buffer in the proportion 1 mg/ml. Two tubes were inserted in the aggregometer, one of which contained 0.2 ml of thrombocyte-containing plasma, while the other one had 0.2 ml of thrombocyte-free plasma and 0.1 ml of isotonic solution of sodium chloride. […] Then, the light-transparency of thrombocyte-containing plasma was measured during 5 minutes, which indicated the stage of thrombocyte aggregation. […]

[1] = test system: carrageenan-induced swelling of leg; test: Local inflammation (leg swelling) provoked by carrageenan in mice; type: in vivo, BALB-line mice; conditions: for % inhibition of swelling: 0.4 mg per mouse (20 mg/kg), 20 mg/kg
Experimental: To study the anti-inflammatory action of drugs, we used the model of local inflammation in mice. Inflammation in BALB-line mice was modeled with the help of carrageenan, a classical phlogogenic agent. 30 minutes before the injection, the mice were injected intra-abdominally with drug, which was dissolved in […] of physiological solution (PS). Carrageenan […] produced by Serva Fein Biochemica (Germany) was prepared in the form of a 1% solution in PS. The obtained viscous solution, 40 mcl, was injected subplantally in the left back leg. The right, intact leg was taken as control. 4 hours later after the carrageenan injection, the mice were killed via decapitation, and their back legs were detached from the bodies on the same level, a little higher the ankles. After that, the legs were carefully weighted, with 1 mg accuracy. Obtained results were statistically processed by the MultiFac 2.2. SPSS 8/0 software. The anti-inflammatory effect of the drug was calculated by the formula:
[formula] • Vk—average increase of volume (mass) of the swollen leg in control mice • Vo—average increase of volume (mass) of the swollen leg in treated mice
In the first test, mice were divided into 8 groups. The first group consisted of control animals, which were injected intra-abdominally with 2 ml of PS. Also, […] of PS was injected in the left leg. This group was studied to determine the influence of injection on the course of inflammation in a leg. The second group, control with LPS, took […] of PS intra-abdominally and received LPS injections in the left leg. The third group took […] of aspirin dissolved in PS in the concentration 0.4 mg per mouse. In the fourth, fifth and sixth groups, yeast RNA-D was dissolved in PS in respective concentrations 5, 10, and 15 mg in 2 ml of PS per animal. LPS was injected in the left leg to provoke swelling. The seventh and eighth groups were treated respectively by DNA-TC and DNA-EC, which were injected in the concentration 15 mg per mouse, as explained above for RNA-treated groups.
The right legs were left intact. 4 hours later, the animals were decapitated. […]

free arachidonic acid = test: Free arachidonic acid in mouse blood plasma after carrageenan injection; type: in vivo; conditions: 320 min after carrageenan; LPS control 3.37
Experimental: (§1) […] We tested the influence of yeast RNA on the activity of NO-synthetase ferment (NOS) in blood plasma and in erythrocytes, as well as on the content in blood plasma of free arachidonic acid and products of its oxide metabolism, carried out in lypoxygenase (leukotriene C4 (LTC4)) and cyclooxygenase (thromboxane B2 (T×B2)) ways.
(§2) The content of free arachidonic acid (AA) was measured by two-dimensional thin-layer chromatography (TLC) as discussed in Tsunamoto et al. (Tsunamoto K., Todo S., Imashuku S. Separation of prostaglandines and thromboxane by two-dimensional thin-layer chromatography. J. Chromatog. 3; 417(2); 414–419; 1987. The content of stable metabolite of thromboxane A2 (TXB2) was studied in probes by radio-immune method with TXB2 [^3H] RIA Kit, by Amersham International PLC (England) (McCann D. S., Tokarsky J., Sorkin R. P., Radioimmunoassay for plasma thromboxane B2. Clin. Chem., 27(8): 1417–1420, 1981). The content of LTC4 was tested in probes by radio-immune method with LTC4 [^3H] RIA Kit by Du Pont Ltd. Hertfordshire, (UK) (Levine L., Morgan R. A., Levis R. A. et al., Radioimmunoassay of the leukotrienes of slow reactivity substance of anaphylaxis. Proc. Natl. Acad. Sci. USA. 78(12): 7692–7696; 1981).

NO-synthetase (NOS) [2] = test: NOS activity in mouse blood plasma after carrageenan injection; type: in vivo; conditions: 320 min after carrageenan; LPS control 110.48
Experimental: as §1
(§3) The activity in blood plasma and erythrocytes of the enzyme NO-synthetase was measured by colometric method applied to the outcome of reaction, nitrite anion. (Yan L., Vandivier R. W., Suffredini A. F., Danner R. L., Human polymorphonuclear leukocytes lack detectable nitric oxide synthetase activity. J. Immunol., 15; 153(4): 1825–1834; 1994). […] The reaction was initiated by adding 0.1 ml of a probe containing 500 microgram of general protein determined by Bredford method. […]
(§4) Nitrite anion was determined using the reagent of Gris in colometric reaction as decribed in Green et al. (Green L. C., Waagner D. A., Glogowski J. et al., Analysis of nitrate, nitrite and [15N] nitrate in biological fluids, Anal. Biochem., 126(1): 131–138;1982). […] In 5 minutes after mixing, the extinction at 543 hm was measured. The quantity of NO2 was measured by standard curve built for NaNO2.

NO-synthetase (NOS) [3] = test: NOS activity in mouse erythrocytes after carrageenan injection; type: in vivo; conditions: 320 min after carrageenan; LPS control 2.232
Experimental: as §1, §3, §4

myeloperoxydase = test: Myeloperoxydase activity in the ischemized part of myocardium; type: in vivo, rats; conditions: 30 minutes occlusion, 1 hour reperfusion; control 211.8+16.7
Source text: The mieloperoxydase activity (MPA) was studied in myocardium using the method of Bradley et al. (Bradley P. P., Priebet D. A., Christensen R. D. et al., Measurement of cutateous inflammation: estimation of neutrophil content with an enzyme marker, J. Invest. Dermatol., 78(3): 206–209; 1982) in the modification by Grisfwold et al. (Griswold D. E., Hillegass L. M., Hill D. E. et al., Method for quantification of myocardial infarction and inflammatory cell infiltration in rat cardial tissue, J. Pharmacol. Methods, 20(3): 225–235, 1988). For this purpose, the heart was extracted and rinsed in physiological solution, which was cooled to 0° C. After rinsing, a section of myocardium (1 g of the tissue) in the central zone of ischemia was cut out and frozen to −30° C. The final fraction was prepared as a 10% haemogenate with extractive buffer containing 0.5% hexadecyltrimethyl ammonium bromide (pH 6.0) at room temperature. […]
The upper fraction (30 microliters) was used for a reaction with 0.167 mg/ml of O-dianisodine in 50 millimole/l of potassium phosphate buffer (pH 6.0). […] The reaction had been continuously tested for 5 minutes at 460 hm wave length, and with readings taken every minute. A chart indicating the readings was prepared. A unit of MPA was defined as the quantity of ferment, which destroys 1 micromole/min H2O2 at 25° C. The data was calculated as MPA per 1 gram of tissue. […]

leukotriene C4 = test: Leukotriene C4 in mouse blood plasma after carrageenan injection; type: in vivo; conditions: 320 min after carrageenan; LPS control 226.78
thromboxane B2 = test: Thromboxane B2 in mouse blood plasma after carrageenan injection; type: in vivo; conditions: 320 min after carrageenan; LPS control 358.240
Experimental: as §1, §2

SMILES: CC(=O)Oc1ccccc1C(=O)O [Aspirin, aspirin]
- inhibition of thrombocyte aggregation (index of aggregation), M (human thrombocytes): 38.66%
- % inhibition of swelling [1]: 18.03%
- % inhibition of swelling ([1]; listed as aspirin): 18.03%
- increase of mass of the swollen leg ([1]; 0.4 mg per mouse intra-abdominally, 4 hours after carrageenan, Control + LPS 43.31): 35.5 +
- content of free arachidonic acid in blood plasma (free arachidonic acid): 2.64 nanomol per 1 mg of protein
- activity of NOS in blood plasma, M (NO-synthetase (NOS) [2]): 42.24 picomol per 1 min per 1 mg of protein
- activity of NOS in erythrocytes, M (NO-synthetase (NOS) [3]): 3.613 picomol per 1 min per 1 mg of protein
- activity of myeloperoxydase in ischemized myocardium (myeloperoxydase): 176.1+5.9 units per 1 g of tissue
- content of leukotriene C4 in blood plasma (leukotriene C4): 93.99 picomol per 1 mg of protein
- content of thromboxane B2 in blood plasma (thromboxane B2): 153.903 picomol per 1 mg of protein
